# Source: patent US9517993B2, “Antagonists of the toll-like receptor 1/2 complex” (THE REGENTS OF THE UNIVERSITY OF COLORADO, a body corporate, priority 2012, dated 2016)
# Tests used:
# Format in all cases: cell-based
# [1] = biological target: T1, TLR4 (Mus musculus, UniProt Q9JHF9+Q9QUK6); assay: RAW 264.7 nitric oxide TLR selectivity assay (LPS); details: 10 ng/mL LPS
# T1 construct: RAW 264.7 Cells Nitric Oxide TLR Selectivity Assay; endogenous in cells; host or cells: RAW 264.7
# T1 sequence (Q9QUK6 26-835): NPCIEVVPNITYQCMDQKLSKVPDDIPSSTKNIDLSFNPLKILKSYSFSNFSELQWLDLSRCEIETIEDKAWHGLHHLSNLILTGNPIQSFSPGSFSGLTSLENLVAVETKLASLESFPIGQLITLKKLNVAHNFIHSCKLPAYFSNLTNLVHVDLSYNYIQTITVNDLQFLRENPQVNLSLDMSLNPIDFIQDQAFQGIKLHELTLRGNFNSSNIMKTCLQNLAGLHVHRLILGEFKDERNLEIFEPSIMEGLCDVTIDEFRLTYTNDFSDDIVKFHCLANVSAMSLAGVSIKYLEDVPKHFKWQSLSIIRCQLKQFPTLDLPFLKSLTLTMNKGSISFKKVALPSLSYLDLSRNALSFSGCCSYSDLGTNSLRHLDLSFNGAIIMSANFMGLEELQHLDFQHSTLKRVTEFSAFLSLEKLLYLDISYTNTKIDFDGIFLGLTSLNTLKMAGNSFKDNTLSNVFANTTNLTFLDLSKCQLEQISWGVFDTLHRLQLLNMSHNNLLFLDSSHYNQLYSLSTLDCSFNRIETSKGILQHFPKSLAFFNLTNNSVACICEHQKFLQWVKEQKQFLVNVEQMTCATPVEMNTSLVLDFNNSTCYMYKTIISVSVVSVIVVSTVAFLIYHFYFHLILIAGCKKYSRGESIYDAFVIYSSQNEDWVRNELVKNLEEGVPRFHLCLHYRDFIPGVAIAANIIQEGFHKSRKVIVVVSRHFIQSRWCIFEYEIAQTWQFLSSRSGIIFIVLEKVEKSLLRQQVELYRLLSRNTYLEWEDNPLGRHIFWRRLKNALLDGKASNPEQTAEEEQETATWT
# T1 sequence (Q9JHF9 19-160): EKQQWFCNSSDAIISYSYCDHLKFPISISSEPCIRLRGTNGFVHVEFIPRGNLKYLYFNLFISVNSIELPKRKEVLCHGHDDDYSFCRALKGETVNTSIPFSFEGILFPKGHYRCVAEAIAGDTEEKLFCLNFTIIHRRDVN
# Protocol: (§1) RAW 264.7 (Mouse leukaemic monocyte macrophage cell line) cells were grown in RPMI 1640 medium, supplemented with 10% FBS, penicillin (100 U/mL) and streptomycin ([…]). RAW cells were then planted in 96-well plates at 80,000 cells per well and grown for 24 h in the media descried previously at 37° C. in a 5% CO2 humidified incubator. After 24 h, non-adherent cells and media were removed and replaced with fresh unsupplemented RPMI 1640 medium. The adherent macrophages were treated with Pam3CSK4 (CAS No. 112208-00-1; a synthetic triacylated lipopeptide (LP) that mimics the acylated amino terminus of bacterial LPs) (200 ng/mL) (Invivogen, USA), an agonist of TLR1/2, and then added different concentrates of potential inhibitor. Two rows were only treated with Pam3CSK4 as control. […] The reaction was quenched by addition of 5 μL of a 3 M aqueous NaOH solution and the plate was read on Beckman Coulter DTX880 reader (Beckman Coulter, Calif., USA) with excitation at 365 nm and emission at 450 nm. The nitrite (a stable metabolite of nitric oxide) concentration was determined from a nitrite standard curve. The inhibition rate (%) of NO release was determined using the following formula: Inhibition (%)=[Pam3CSK4(OD450) […]]/[Pam3CSK4 (OD450)−Control (OD450)]×100. The IC50 values for both inhibition and cytotoxicity were determined graphically using software Origin v7.5. […]
# [2] = biological target: T2, TLR3 (Mus musculus, UniProt Q99MB1); assay: RAW 264.7 nitric oxide TLR selectivity assay (Poly (I:C)); details: 15 μg/mL Poly (I:C)
# T2 construct: RAW 264.7 Cells Nitric Oxide TLR Selectivity Assay; endogenous in cells; host or cells: RAW 264.7
# T2 sequence (Q99MB1 26-905): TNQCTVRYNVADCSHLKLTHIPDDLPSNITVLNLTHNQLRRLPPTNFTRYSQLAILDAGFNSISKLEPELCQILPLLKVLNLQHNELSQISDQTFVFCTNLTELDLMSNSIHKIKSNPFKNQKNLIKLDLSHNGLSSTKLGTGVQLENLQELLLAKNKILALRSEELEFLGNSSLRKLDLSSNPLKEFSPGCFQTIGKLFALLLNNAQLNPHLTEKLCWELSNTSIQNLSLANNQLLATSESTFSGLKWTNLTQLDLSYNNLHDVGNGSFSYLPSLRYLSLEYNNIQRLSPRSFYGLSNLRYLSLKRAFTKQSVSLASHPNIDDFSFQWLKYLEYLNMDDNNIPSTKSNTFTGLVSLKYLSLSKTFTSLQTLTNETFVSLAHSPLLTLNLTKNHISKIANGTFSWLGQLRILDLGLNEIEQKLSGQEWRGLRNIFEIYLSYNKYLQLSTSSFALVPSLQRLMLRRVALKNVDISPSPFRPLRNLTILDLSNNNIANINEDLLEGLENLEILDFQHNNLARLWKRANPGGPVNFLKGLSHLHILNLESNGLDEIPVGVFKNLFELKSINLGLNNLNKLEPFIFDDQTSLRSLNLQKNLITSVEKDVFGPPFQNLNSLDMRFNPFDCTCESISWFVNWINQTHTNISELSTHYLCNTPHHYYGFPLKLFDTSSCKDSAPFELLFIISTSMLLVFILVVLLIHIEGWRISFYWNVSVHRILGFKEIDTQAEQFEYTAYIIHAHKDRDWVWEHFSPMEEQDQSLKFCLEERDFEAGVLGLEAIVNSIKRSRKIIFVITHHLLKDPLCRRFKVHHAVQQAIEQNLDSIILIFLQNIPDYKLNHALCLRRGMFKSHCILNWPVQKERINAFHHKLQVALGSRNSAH
# Protocol: as §1
# [3] = biological target: T3, TLR2/6 (Mus musculus, UniProt Q9EPW9+Q9QUN7); assay: RAW 264.7 nitric oxide TLR selectivity assay (FSL-1); details: 10 ng/mL FSL-1
# T3 construct: RAW 264.7 Cells Nitric Oxide TLR Selectivity Assay; endogenous in cells; host or cells: RAW 264.7
# T3 sequence (Q9QUN7 25-784): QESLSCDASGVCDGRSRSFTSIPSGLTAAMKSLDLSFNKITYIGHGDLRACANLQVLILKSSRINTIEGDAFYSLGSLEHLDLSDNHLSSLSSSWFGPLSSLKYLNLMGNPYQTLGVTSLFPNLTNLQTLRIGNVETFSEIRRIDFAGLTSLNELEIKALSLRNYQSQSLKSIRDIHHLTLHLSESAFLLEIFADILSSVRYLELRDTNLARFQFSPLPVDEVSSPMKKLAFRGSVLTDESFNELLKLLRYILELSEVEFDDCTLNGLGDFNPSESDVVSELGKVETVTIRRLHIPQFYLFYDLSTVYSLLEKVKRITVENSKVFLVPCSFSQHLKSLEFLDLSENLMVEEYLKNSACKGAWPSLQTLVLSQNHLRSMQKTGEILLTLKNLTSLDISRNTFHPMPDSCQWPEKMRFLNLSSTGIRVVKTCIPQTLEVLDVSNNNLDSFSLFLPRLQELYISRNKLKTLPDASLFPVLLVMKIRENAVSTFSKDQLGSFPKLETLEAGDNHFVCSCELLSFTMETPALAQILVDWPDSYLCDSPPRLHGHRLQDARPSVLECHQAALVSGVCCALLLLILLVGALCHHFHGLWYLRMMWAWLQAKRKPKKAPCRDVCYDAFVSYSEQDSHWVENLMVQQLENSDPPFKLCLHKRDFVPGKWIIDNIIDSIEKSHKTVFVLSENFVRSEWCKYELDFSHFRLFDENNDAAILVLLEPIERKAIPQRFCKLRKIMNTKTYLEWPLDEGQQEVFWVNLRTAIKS
# T3 sequence (Q9EPW9 28-795): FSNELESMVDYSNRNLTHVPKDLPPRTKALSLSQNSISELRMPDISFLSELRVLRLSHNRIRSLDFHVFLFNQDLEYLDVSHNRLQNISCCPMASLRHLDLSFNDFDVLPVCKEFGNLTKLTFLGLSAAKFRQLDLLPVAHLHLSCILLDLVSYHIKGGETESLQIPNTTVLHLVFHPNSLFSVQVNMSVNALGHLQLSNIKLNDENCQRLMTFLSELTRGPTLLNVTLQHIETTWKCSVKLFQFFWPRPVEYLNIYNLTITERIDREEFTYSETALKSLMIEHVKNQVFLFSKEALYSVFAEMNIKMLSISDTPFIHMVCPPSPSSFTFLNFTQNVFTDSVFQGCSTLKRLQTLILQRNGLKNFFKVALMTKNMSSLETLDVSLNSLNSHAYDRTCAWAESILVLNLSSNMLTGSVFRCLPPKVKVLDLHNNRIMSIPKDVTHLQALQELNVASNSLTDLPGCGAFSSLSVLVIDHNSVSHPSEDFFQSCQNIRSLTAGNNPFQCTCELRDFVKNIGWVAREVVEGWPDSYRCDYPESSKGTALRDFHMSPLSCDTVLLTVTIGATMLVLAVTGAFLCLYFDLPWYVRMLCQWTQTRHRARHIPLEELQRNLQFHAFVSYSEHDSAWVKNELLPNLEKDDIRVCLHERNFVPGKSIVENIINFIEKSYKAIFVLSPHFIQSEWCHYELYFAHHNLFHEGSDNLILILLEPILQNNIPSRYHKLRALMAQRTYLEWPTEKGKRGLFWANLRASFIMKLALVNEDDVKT
# Protocol: RAW 264.7 (Mouse leukaemic monocyte macrophage cell line) cells were grown in RPMI 1640 medium, supplemented with 10% FBS, penicillin (100 U/mL) and streptomycin ([…]). RAW cells were then planted in 96-well plates at 80,000 cells per well and grown for 24 h in the media descried previously at 37° C. in a 5% CO2 humidified incubator. After 24 h, non-adherent cells and media were removed and replaced with fresh unsupplemented RPMI 1640 medium. The adherent macrophages were treated with Pam3CSK4 (CAS No. 112208-00-1; a synthetic triacylated lipopeptide (LP) that mimics the acylated amino terminus of bacterial LPs) (200 ng/mL) (Invivogen, USA), an agonist of TLR1/2, and then added different concentrates of potential inhibitor. Two rows were only treated with Pam3CSK4 as control. Plates were then incubated for an additional 24 h. Following incubation 100 μL of media was removed and added to flat black 96-well microfluor plates (Thermo Scientific, MA, USA). To each well, 10 μL of 2,3-diaminonaphthalene (0.05 mg/mL in 0.62 M aqueous HCl solution) was added and incubated for 15 min in the dark. The reaction was quenched by addition of 5 μL of a 3 M aqueous NaOH solution and the plate was read on Beckman Coulter DTX880 reader (Beckman Coulter, Calif., USA) with excitation at 365 nm and emission at 450 nm. The nitrite (a stable metabolite of nitric oxide) concentration was determined from a nitrite standard curve. The inhibition rate (%) of NO release was determined using the following formula: Inhibition (%)=[Pam3CSK4(OD450) […]]/[Pam3CSK4 (OD450)−Control (OD450)]×100. The IC50 values for both inhibition and cytotoxicity were determined graphically using software Origin v7.5.
# This assay was run in a similar manor as the “In Vitro TLR1/2 Inhibition Assay”. High molecule weight Poly (I:C), LPS (lipopolysaccharide), FSL-1 (Synthetic diacylated lipoprotein—TLR2/TLR6 ligand commercially available from Invivogen, USA), and R848 ([…]) were used to selectively activate TLR3, TLR4, TLR2/6 and TLR7 in place of Pam3CSK4, respectively.
Structure (SMILES),inhibition of TLR4 signaling ([1]; 3 μM compound),inhibition of TLR3 signaling ([2]; 3 μM compound),inhibition of TLR2/6 signaling ([3]; 3 μM compound),inhibition of TLR4 signaling ([1]; 0.5 μM compound),inhibition of TLR3 signaling ([2]; 0.5 μM compound),inhibition of TLR2/6 signaling ([3]; 0.5 μM compound),"inhibition of TLR2/6 signaling ([3]; 0.5 μM compound, listed as Compound 17)"
"O=c1c(O)cccc2cc(O)c(O)c(O)c12 [NCI35676, purpurogallin, reference compound]",no other homologous TLRs,no other homologous TLRs,no other homologous TLRs,,,,
"CCCCCCOC(=O)c1cc(O)c(=O)c2c(O)c(O)c(OC)cc2c1 [compound 17, Hexyl 3,4,6-trihydroxy-2-methoxy-5-oxo-5H-benzo[7]annulene-8-carboxylate]",,,,without affecting other TLRs,without affecting other TLRs,no significant inhibition,without affecting other TLRs
